# Results taken from US12685709B2, “Solid solution compositions and use in chronic inflammation” (Infirst Healthcare Limited, priority 2011, dated 2026).
# Several values for one entry are separate records, joined by “and”; a condition that tells them apart may be missing. Identical values can stand only once.
# Legend:
# [1] = tested on: U937 monocyte cell line differentiated into macrophages; settings: % therapeutic compound taken up by macrophages after 45 minutes incubation, HPLC; N=2
# Protocol: Cultures of U937 monocyte cell line were grown in RPMI-1640 supplemented with 10% fetal calf serum (FCS) until the cells reached 90% confluent monolayer. These cells were then treated with PMA and incubated in a 37° C. incubator under 5% carbon dioxide until the cells differentiated into macrophages. […] After incubation for 45 minutes the test solution supernatants were removed and saved for analysis, and the cells were then washed in PBS several times and lysed using two cycles of freeze-thawing. Therapeutic compound concentration present in the test solution, test solution supernatant, and cell lyste fractions was measured by HPLC. The percentage therapeutic compound taken up by the macrophages was calculated using the following formula: % therapeutic compound adsorbed=100×(compound mass recovered from cell lysate)/(compound mass delivered in test solution−compound mass recovered from test solution supernatant).
# [2] = tested on: TBS-induced colitis murine model; test: Animal model for inflammatory bowel disease (TNBS-induced colitis); format: in vivo, C57BI/6 male mice; settings: for Mean Colon Length / Mean Colon Weight / Mean Animal Weight: TNBS colitis; for Mean Colon Length / Mean Colon Weight / Endoscopy Colitis Severity Score Day 5: day 5; for Mean Animal Weight: oral dosing day -1 to day 5, Prednisolone 3 mg/kg, ibuprofen 20 mg/kg, BC1054-20 20 mg/kg, BC1054-30 30 mg/kg; for Endoscopy Colitis Severity Score Day 3 / Endoscopy Colitis Severity Score Day 5: video endoscopy, scale 0 to 4
# Protocol: To assess the effectiveness of a pharmaceutical composition disclosed herein in treating an inflammatory bowel disease, experiments were conducted using a […] colitis murine model.
# C57BI/6 male mice (6-7 weeks old) were divided into seven experimental groups containing at least ten animals each. On day 0, colitis was induced in mice from Groups B-G by intrarectal administration of 100 μL of TNBS (4 mg) in 50% ethanol under isoflurane anesthesia. Animals were dosed either once or three times a day from day −1 to day 5 with one of seven different treatments. Group A was a control in which each mouse was orally administered ethanol vehicle only. Group B was a control in which each mouse was orally administered 1% methylcellulose vehicle only. Group C was a control in which each mouse was orally administered solvent/adjuvant vehicle only (gavage of 10% ethanol and 90% linseed oil). Group D was a control in which each mouse was orally administered 3 mg/kg of Prednisolone. Group E was a control in which each mouse was orally administered 20 mg/kg of ibuprofen suspended in 1% methylcellulose (1 ml/kg) (no adjuvant). Group F was the experimental group in which each mouse was administered a pharmaceutical composition disclosed herein (BC1054-20) comprising 20 mg/kg of ibuprofen, 10% ethanol, and 90% linseed oil. Group G was the experimental group in which each mouse was administered a pharmaceutical composition disclosed herein (BC1054-30) comprising 30 mg/kg of ibuprofen, 10% ethanol, and 90% linseed oil. All animals were weighed daily and assessed visually for the presence of diarrhea and/or bloody stool. On day 3 and on day 5 colitis severity was assessed in all animals using video endoscopy, where images were taken and colitis severity scored visually by a blinded observer on a scale from 0 to 4 as follows: 0, normal; 1, loss of vascularity; 2, loss of vascularity and friability; 3, friability and erosions; and 4, ulcerations and bleeding. Following endoscopy on day 5, animals were sacrificed and the colon removed and its length and weight measured. Serum samples were obtained and the colon was fixed in 10% formalin. An additional piece of colon tissue was collected, weighed, and snap frozen in liquid nitrogen.
# [3] = tested on: intestinal erosion murine model; test: Animal model for intestinal erosion (gastric irritation score); format: in vivo, Sprague-Dawley rats; settings: for Mean Ulceration Score: 4 hours after treatment, score 0-4
# Protocol: To assess whether a pharmaceutical composition disclosed herein reduced gastric irritation, experiments were conducted using an intestinal erosion murine model.
# Sprague-Dawley rats were divided into seven experimental groups containing five animals each. After fasting overnight, the animals were challenged with one with one of seven different treatments. Group A was a control in which each mouse was orally administered 1% methylcellulose/0.5% polysorbate 80 vehicle only. Group B was a control in which each mouse was orally administered solvent/adjuvant vehicle only (gavage of 10% ethanol and 90% linseed oil). Group C was a control in which each mouse was orally administered 150 mg/kg aspirin. Group D was a control in which each mouse was orally administered 100 mg/kg ibuprofen suspended in 1% methylcellulose/0.5% polysorbate 80. Group E was the experimental group in which each mouse was administered a pharmaceutical composition disclosed herein (BC1054-100) comprising 100 mg/kg of ibuprofen, 10% ethanol, and 90% linseed oil. Group F was a control in which each mouse was orally administered 100 mg/kg ibuprofen suspended in 1% methylcellulose/0.5% polysorbate 80. Group G was the experimental group in which each mouse was administered a pharmaceutical composition disclosed herein (BC1054-200) comprising 200 mg/kg of ibuprofen, 10% ethanol, and 90% linseed oil. Animals were sacrificed 4 hours after treatment and the stomachs were examined for degree of hemorrhage and severity of mucosal erosive lesions. Gastric irritation was scored as follows: 0, no lesions; 1, hyperemia; 2, one or two slight lesions; 3, more than two slight lesions or severe lesions; and 4, very severe lesions. A score of 50% or more relative to Group C (aspirin-treated control group), which was set to 100%, was considered a positive score for gastric irritation.
# [4] = tested on: α-collagen antibody induced arthritis (ACAIA) murine model; test: Alpha-collagen antibody induced arthritis (ACAIA) model for systemic arthritis; format: in vivo, Male BALB/c mice; settings: for mean paw thickness compared to vehicle-treated Group 1M (significance): ANOVA with Tukey post hoc
# Protocol: To assess the effectiveness of a pharmaceutical composition disclosed herein in treating arthritis, experiments were conducted using an α-collagen antibody induced arthritis (ACAIA) murine model that mimics a systemic arthritis like rheumatoid arthritis.
# Male BALB/c mice were divided into eight groups, each containing 10 animals. To induce arthritic symptoms, mice from all eight groups were intravenously injected with 200 μL of an antibody solution comprising a 2 mg cocktail of four α-collagen II monoclonal antibodies (ARTHRITOMAB™, MD Biosciences) on study day 0 (study commencement), followed by a 200 μL intraperitoneal injection of a solution containing 100 μg lipopolysaccharide (LPS) on study day 3. Each group was subjected daily to a control or test treatment administered from day 0-11 as follows: Group 1 mice (1M) were treated orally with a vehicle preparation containing 1% methyl cellulose administered thrice daily; Group 2 mice (2M) were treated intraperitoneally with a positive control preparation containing 10 mg/kg etanercept (ENBREL®, Wyeth) administered once daily; Group 3 mice (3M) were treated orally with a 20 mg/kg test liquid formulation comprising ibuprofen and rapeseed oil (BC1054 LF-RO) administered once daily; Group 4 mice (4M) were treated orally with a 20 mg/kg test liquid formulation comprising ibuprofen and rapeseed oil (BC1054 LF-RO) administered thrice daily; Group 5 mice (5M) were treated orally with a 20 mg/kg test liquid formulation comprising ibuprofen and a glyceryl monolinoleate (MAISINE™ 35-1, Gattefosse) (BC1054 LF-MA) administered thrice daily; Group 6 mice (6M) were treated orally with a 20 mg/kg test solid formulation comprising ibuprofen and theobroma oil (BC1054 LF-TO) administered thrice daily; Group 7 mice (7M) were treated orally with a control preparation 1 comprising 20 mg/kg of ibuprofen administered thrice daily; and Group 8 mice (8M) were treated orally with a 20 mg/kg test solid formulation comprising ibuprofen and a waxy solid having a melting point of between 37° C. to 41° C. and comprising a mixture of saturated C10-C18 triglycerides ([…]® 39/01, Gattefosse) (BC1054 LF-GE) administered thrice daily (Table 6). The dose administered was calculated based on the assumption that each animal weighed, on average, 20 g. A fixed volume of 100 μL was administered to each mouse, except those animals receiving the positive control (2M) were administered 200 μL.
# Arthritic development and clinical examinations were monitored in all mice on study day 0 shortly before arthritis induction and subsequently on study days 3-7, 9, 10 and 12 (study termination). To access arthritic development, both an arthritis score and paw thickness (plethysmography) measurements were obtained. The arthritis score was based on visual assessment of arthritis reactions using a 0-4 scale in ascending order of severity with Grade 0 indicating no arthritis reaction; Grade 1 indicating mild, but definite redness and swelling of the ankle/wrist or apparent redness and swelling limited to individual digits, regardless of the number of affected digits; Grade 2 indicating moderate to severe redness and swelling of the ankle/wrist; Grade 3 indicating redness and swelling of the entire paw including digits; and Grade 4 indicating maximally inflamed limb with involvement of multiple joints. Paw thickness was measured for both hind paws just above the foot pad and below the calcaneum using a dial caliper (Kroeplin, Munich, Germany). Mean values for paw thickness measurements were determined, and where appropriate, analysis of the data by ANOVA with Tukey post hoc analysis was applied to determine significance of treatment effects.
# Clinical examinations included changes in body weight, condition of skin, fur, eyes, mucous membranes, occurrence of secretions and excretions (e.g. diarrhea), and autonomic activity (e.g. lacrimation, salivation, piloerection, pupil size, unusual respiratory pattern). […]
# [5] = statistical comparison, doses as E9
# [6] = day 6, 20 mg/kg PO thrice daily (Groups 4M-8M)
compound,measurement,setting,value
"CC(C)Cc1ccc(C(C)C(=O)O)cc1 (stereo not drawn) [Formulation C, ibuprofen free acid]",Mean Mass Compound Uptake,[1],0.4%
C[C@]12C=CC(=O)C=C1CC[C@@H]1[C@@H]2[C@@H](O)C[C@@]2(C)[C@H]1CC[C@]2(O)C(=O)CO [Prednisolone],Mean Colon Length,[2]; doses as E9,8.4 cm
same,Mean Colon Weight,[2]; doses as E9,267 mg
same,Mean Animal Weight,[2],23.33 g
same,mean colitis scores compared to Group B (TNBS-treated control group),[2]; [5],statistically significant reduced mean colitis scores on both day 3 and day 5
same,mean colon length compared to Group B (TNBS-treated control group),[2]; [5],statistically significant increase in mean colon length
same,Endoscopy Colitis Severity Score Day 3,[2]; doses as E9,2.3^7
same,Endoscopy Colitis Severity Score Day 5,[2]; doses as E9,1.7^8
CC(=O)Oc1ccccc1C(=O)O [aspirin],% Aspirin Erosion,"[3]; Group C, 150 mg/kg aspirin, set to 100%",(100) %
same,Mean Ulceration Score,"[3]; Group C, 150 mg/kg oral",4
CC(C)Cc1ccc(C(C)C(=O)O)cc1 (stereo not drawn) [ibuprofen],mean paw thickness compared to vehicle-treated Group 1M (significance),[4]; 20 mg/kg PO thrice daily (Groups 4M-8M),No significant differences were observed
same,Mean Rear Paw Thickness,"[4]; day 0, 20 mg/kg PO thrice daily (Groups 4M-8M), 20 mg/kg",1.71±0.02 mm and 1.71 mm
same,Mean Rear Paw Thickness,"[4]; day 3, 20 mg/kg PO thrice daily (Groups 4M-8M)",1.72 mm
same,Mean Rear Paw Thickness,"[4]; day 4, 20 mg/kg PO thrice daily (Groups 4M-8M)",1.64 mm
same,Mean Rear Paw Thickness,"[4]; day 5, 20 mg/kg PO thrice daily (Groups 4M-8M)",1.71 mm
same,Arthritis incidence,[4]; [6],8/10
same,Mean Rear Paw Thickness,[4]; [6],1.90 mm
same,Mean Rear Paw Thickness,"[4]; day 7, 20 mg/kg PO thrice daily (Groups 4M-8M), 20 mg/kg",2.15±0.10 mm and 2.15 mm
same,Mean Rear Paw Thickness,"[4]; day 9, 20 mg/kg PO thrice daily (Groups 4M-8M)",2.08 mm
same,Mean Rear Paw Thickness,"[4]; day 10, 20 mg/kg PO thrice daily (Groups 4M-8M)",2.07 mm
same,Mean Rear Paw Thickness,"[4]; day 12, 20 mg/kg PO thrice daily (Groups 4M-8M), 20 mg/kg",2.02±0.08 mm and 2.02 mm
same,% Aspirin Erosion,"[3]; 100 mg/kg ibuprofen (Groups D, E), relative to Group C, 50% or more = positive score for gastric irritation",75% and 75^1%
same,Mean Ulceration Score,"[3]; 100 mg/kg ibuprofen oral (Groups D, E)",3
same,% Aspirin Erosion,"[3]; 200 mg/kg ibuprofen (Groups F, G), relative to Group C, 50% or more = positive score for gastric irritation",95% and 95^1%
same,Mean Ulceration Score,"[3]; 200 mg/kg ibuprofen oral (Groups F, G)",3.8
same,Mean Colon Length,[2]; doses as E9,7.9 cm
same,Mean Colon Weight,[2]; doses as E9,267 mg
same,Mean Animal Weight,[2],23.82 g
same,Endoscopy Colitis Severity Score Day 3,[2]; doses as E9,2.7
same,Endoscopy Colitis Severity Score Day 5,[2]; doses as E9,2.2
Etanercept,mean paw thickness compared to vehicle-treated Group 1M (significance),"[4]; once daily dosing (Groups 2M, 3M)","significantly decreased paw volume compared to the positive control mice on days 9, 10 and 12"
same,Mean Rear Paw Thickness,"[4]; day 0, once daily (Etanercept 10 mg/kg IP, Group 2M; BC1054 LF-RO 20 mg/kg PO, Group 3M)",1.70±0.02 mm and 1.70 mm
same,Mean Rear Paw Thickness,"[4]; day 3, once daily (Etanercept 10 mg/kg IP, Group 2M; BC1054 LF-RO 20 mg/kg PO, Group 3M)",1.73 mm
same,Mean Rear Paw Thickness,"[4]; day 4, once daily (Etanercept 10 mg/kg IP, Group 2M; BC1054 LF-RO 20 mg/kg PO, Group 3M)",1.64 mm
same,Mean Rear Paw Thickness,"[4]; day 5, once daily (Etanercept 10 mg/kg IP, Group 2M; BC1054 LF-RO 20 mg/kg PO, Group 3M)",1.63 mm
same,Mean Rear Paw Thickness,"[4]; day 6, once daily (Etanercept 10 mg/kg IP, Group 2M; BC1054 LF-RO 20 mg/kg PO, Group 3M)",1.96±0.05 mm and 1.96 mm
same,Arthritis incidence,"[4]; day 6, once daily dosing (Groups 2M, 3M)",9/10
same,Mean Rear Paw Thickness,"[4]; day 7, once daily (Etanercept 10 mg/kg IP, Group 2M; BC1054 LF-RO 20 mg/kg PO, Group 3M)",1.95 mm
same,Mean Rear Paw Thickness,"[4]; day 9, once daily (Etanercept 10 mg/kg IP, Group 2M; BC1054 LF-RO 20 mg/kg PO, Group 3M)",1.88 mm
same,Mean Rear Paw Thickness,"[4]; day 10, once daily (Etanercept 10 mg/kg IP, Group 2M; BC1054 LF-RO 20 mg/kg PO, Group 3M)",1.80 mm
same,Mean Rear Paw Thickness,"[4]; day 12, once daily (Etanercept 10 mg/kg IP, Group 2M; BC1054 LF-RO 20 mg/kg PO, Group 3M)",1.77±0.02 mm and 1.77 mm
same,Arthritis incidence,"[4]; day 12, once daily dosing (Groups 2M, 3M)",1/10
